Values after ≈ are worked out from the molar mass of the structure shown. Like-named read-outs stand apart in the source and are kept apart here.
Columns and labels:
[1] = target: T1, recombinant human GST-Syk (Homo sapiens, UniProt P43405); assay: Homogeneous Time-Resolved Fluorescence (HTRF) assay for the recombinant human Syk enzyme; type: biochemical; conditions: ATP 25 μM
T1 construct: purchased Carna Biosciences 08-176
Summary of the method: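 Recombinant GST-hSyk phosphorylates a biotinylated peptide for 45 min at room temperature. Quenched with EDTA buffer containing 2 nM Eu-anti-phosphotyrosine antibody and 70 nM SA-APC; HTRF read after 30 min.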

[2] = Solubility in biorelevant fasted state simulated intestinal fluid (FaSSIF); type: physicochemical; conditions: 25 °C, fassif, kinetic from dmso stock, Solubility
Method: Solubility in Biorelevant Fasted State Simulated Intestinal Fluid (FaSSIF):
A 10 mM DMSO stock solution of compound to be tested is used. A 100 μM standard solution is generated by diluting 2.5 μL of the 10 mM stock solution with 247.5 μL of diluent (10% DMSO/10% MeCN/80% MeOH, v/v/v). A solubility solution is generated by diluting 5 μL of the 10 mM stock solution with 245 μL of FaSSIF (maximum solubility approximately 200 μM). […] The equilibrated solubility solution is filtered by centrifugation (3 minutes at 4000 rpm) using a 0.45 µm filter with a polypropylene membrane. The standard solution and the filtered equilibrated solubility solution are analyzed by HPLC/DAD. The solubility value is calculated by the following equation:
Solubility=(Peak area of sample/Peak area of standard)(Standard concentration)

[3] = recombinant human GST-Syk 5 pM, read-out: IC50

SMILES	IC50 [1, 3] [nM]	solubility [2] [µM]	IC50 ([1]; IC50, recombinant human GST-Syk 5 pM) [nM]
CC[N+](COC(=O)[C@H]1CC[C@H]([C@@](C)(O)c2ccc(-c3cc(C)cc(Nc4cc(C(F)F)ccn4)n3)cn2)CC1)(C(C)C)C(C)C [Example 5-3, N-{[({trans-4-[(1R)-1-(6-{[4-(difluoromethyl)pyridin-2-yl]amino}-4-methyl-2,3′-bipyridin-6′-yl)-1-hydroxyethyl]cyclohexyl}carbonyl)oxy]methyl}-N-ethyl-N-(1-methylethyl)propan-2-aminium]	1.9	175	–
Cc1cc(Nc2cc(C(F)F)ccn2)nc(-c2ccc([C@](C)(O)[C@H]3CC[C@H](C(=O)OC[N+](C)(C)CCN(C)C)CC3)nc2)c1 [Example 5-5, N-{[({trans-4-[(1R)-1-(6-{[4-(difluoromethyl)pyridin-2-yl]amino}-4-methyl-2,3′-bipyridin-6′-yl)-1-hydroxyethyl]cyclohexyl}carbonyl)oxy]methyl}-2-(dimethylamino)-N,N-dimethylethanaminium]	1.3	53	–
CCCC[N+](CC)(CC)COC(=O)[C@H]1CC[C@H]([C@@](C)(O)c2ccc(-c3cc(C)cc(Nc4cc(C(F)F)ccn4)n3)cn2)CC1 [Example 5-6, N-{[({trans-4-[(1R)-1-(6-{[4-(difluoromethyl)pyridin-2-yl]amino}-4-methyl-2,3′-bipyridin-6′-yl)-1-hydroxyethyl]cyclohexyl}carbonyl)oxy]methyl}-N,N-diethylbutan-1-aminium]	1.1	152	–
CC[N+](CC)(CCCC(C)O)COC(=O)[C@H]1CC[C@H]([C@@](C)(O)c2ccc(-c3cc(C)cc(Nc4cc(C(F)F)ccn4)n3)cn2)CC1 (stereo partly drawn) [Example 5-7, N-{[({trans-4-[(1R)-1-(6-{[4-(difluoromethyl)pyridin-2-yl]amino}-4-methyl-2,3′-bipyridin-6′-yl)-1-hydroxyethyl]cyclohexyl}carbonyl)oxy]methyl}-N,N-diethyl-4-hydroxypentan-1-aminium]	1.3	200	–
CCC[N+](CCC)(CCC)COC(=O)[C@H]1CC[C@H]([C@@](C)(O)c2ccc(-c3cc(C)cc(Nc4cc(C(F)F)ccn4)n3)cn2)CC1 [Example 5-9, N-{[({trans-4-[(1R)-1-(6-{[4-(difluoromethyl)pyridin-2-yl]amino}-4-methyl-2,3′-bipyridin-6′-yl)-1-hydroxyethyl]cyclohexyl}carbonyl)oxy]methyl}-N,N-dipropylpropan-1-aminium]	1	137	–
CC[N+](CC)(CC)COC(=O)[C@H]1CC[C@H]([C@@](C)(O)c2ccc(-c3cc(C)cc(Nc4cc(C(F)F)ccn4)n3)cn2)CC1 [Example 5-10, N-{[({trans-4-[(1R)-1-(6-{[4-(difluoromethyl)pyridin-2-yl]amino}-4-methyl-2,3′-bipyridin-6′-yl)-1-hydroxyethyl]cyclohexyl}carbonyl)oxy]methyl}-N,N-diethylethanaminium]	1.4	138	–
Cc1cc(Nc2cc(C(F)F)ccn2)nc(-c2ccc([C@](C)(O)[C@H]3CC[C@H](C(=O)OC[N+](C)(C)C4CCCCC4)CC3)nc2)c1 [Example 5-11, N-{[({trans-4-[(1R)-1-(6-{[4-(difluoromethyl)pyridin-2-yl]amino}-4-methyl-2,3′-bipyridin-6′-yl)-1-hydroxyethyl]cyclohexyl}carbonyl)oxy]methyl}-N,N-dimethylcyclohexanaminium]	0.9	200	–
CCN(CC)C(=O)N1CC[N+](C)(COC(=O)[C@H]2CC[C@H]([C@@](C)(O)c3ccc(-c4cc(C)cc(Nc5cc(C(F)F)ccn5)n4)cn3)CC2)CC1 [Example 5-12, 4-(diethylcarbamoyl)-1-{[({trans-4-[(1R)-1-(6-{[4-(difluoromethyl)pyridin-2-yl]amino}-4-methyl-2,3′-bipyridin-6′-yl)-1-hydroxyethyl]cyclohexyl}carbonyl)oxy]methyl}-1-methylpiperazin-1-ium]	< 0.5	55	–
CC[N+]1(COC(=O)[C@H]2CC[C@H]([C@@](C)(O)c3ccc(-c4cc(C)cc(Nc5cc(C(F)F)ccn5)n4)cn3)CC2)CCCCC1 [Example 5-14, 1-{[({trans-4-[(1R)-1-(6-{[4-(difluoromethyl)pyridin-2-yl]amino}-4-methyl-2,3′-bipyridin-6′-yl)-1-hydroxyethyl]cyclohexyl}carbonyl)oxy]methyl}-1-ethylpiperidinium]	2.3	200	–
CC(=O)C1CC[N+](C)(COC(=O)[C@H]2CC[C@H]([C@@](C)(O)c3ccc(-c4cc(C)cc(Nc5cc(C(F)F)ccn5)n4)cn3)CC2)CC1 (stereo partly drawn) [Example 5-17, 4-acetyl-1-{[({trans-4-[(1R)-1-(6-{[4-(difluoromethyl)pyridin-2-yl]amino}-4-methyl-2,3′-bipyridin-6′-yl)-1-hydroxyethyl]cyclohexyl}carbonyl)oxy]methyl}-1-methylpiperidinium]	1.6	45	–
Cc1cc(Nc2cc(C(F)F)ccn2)nc(-c2ccc([C@](C)(O)[C@H]3CC[C@H](C(=O)OC[N+](C)(C)Cc4ccccc4)CC3)nc2)c1 [Example 5-20, N-benzyl[({trans-4-[(1R)-1-(6-{[4-(difluoromethyl)pyridin-2-yl]amino}-4-methyl-2,3′-bipyridin-6′-yl)-1-hydroxyethyl]cyclohexyl}carbonyl)oxy]-N,N-dimethylmethanaminium]	0.8	86	–
Cc1cc(Nc2cc(C(F)F)ccn2)nc(-c2ccc([C@](C)(O)[C@H]3CC[C@H](C(=O)OC[N+](C)(C)CCOCCN(C)C)CC3)nc2)c1 [Example 5-23, N-{[({trans-4-[(1R)-1-(6-{[4-(difluoromethyl)pyridin-2-yl]amino}-4-methyl-2,3′-bipyridin-6′-yl)-1-hydroxyethyl]cyclohexyl}carbonyl)oxy]methyl}-2-[2-(dimethylamino)ethoxy]-N,N-dimethylethanaminium]	1.1	98	–
Cc1cc(Nc2cc(C(F)F)ccn2)nc(-c2ccc([C@](C)(O)[C@H]3CC[C@H](C(=O)OC[N+](C)(C)CCOC(=O)c4ccccc4)CC3)nc2)c1 [Example 5-25, N-{[({trans-4-[(1R)-1-(6-{[4-(difluoromethyl)pyridin-2-yl]amino}-4-methyl-2,3′-bipyridin-6′-yl)-1-hydroxyethyl]cyclohexyl}carbonyl)oxy]methyl}-N,N-dimethyl-2-[(phenylcarbonyl)oxy]ethanaminium]	0.7	155	–
Cc1cc(Nc2cc(C(F)F)ccn2)nc(-c2ccc([C@](C)(O)[C@H]3CC[C@H](C(=O)OC[N+]4(C)CCN(C)CC4)CC3)nc2)c1 [Example 5-26, 1-{[({trans-4-[(1R)-1-(6-{[4-(difluoromethyl)pyridin-2-yl]amino}-4-methyl-2,3′-bipyridin-6′-yl)-1-hydroxyethyl]cyclohexyl}carbonyl)oxy]methyl}-1,4-dimethylpiperazin-1-ium]	2	68	–
Cc1cc(Nc2cc(C(F)F)ccn2)nc(-c2ccc([C@](C)(O)[C@H]3CC[C@H](C(=O)OC[N+]4(C)CCC(O)CC4)CC3)nc2)c1 (stereo partly drawn) [Example 5-27, 1-{[({trans-4-[(1R)-1-(6-{[4-(difluoromethyl)pyridin-2-yl]amino}-4-methyl-2,3′-bipyridin-6′-yl)-1-hydroxyethyl]cyclohexyl}carbonyl)oxy]methyl}-4-hydroxy-1-methylpiperidinium]	1.5	164	–
Cc1cc(Nc2cc(C(F)F)ccn2)nc(-c2ccc([C@](C)(O)[C@H]3CC[C@H](C(=O)OC[N+]4(C)CCC(CO)CC4)CC3)nc2)c1 (stereo partly drawn) [Example 5-29, 1-{[({trans-4-[(1R)-1-(6-{[4-(difluoromethyl)pyridin-2-yl]amino}-4-methyl-2,3′-bipyridin-6′-yl)-1-hydroxyethyl]cyclohexyl}carbonyl)oxy]methyl}-4-(hydroxymethyl)-1-methylpiperidinium]	< 0.5	176	–
Cc1cc(Nc2cc(C(F)F)ccn2)nc(-c2ccc([C@](C)(O)[C@H]3CC[C@H](C(=O)OCCC[S+](C)[O-])CC3)nc2)c1 (stereo partly drawn) [Example 7-4, 3-(methylsulfinyl)propyl trans-4-[(1R)-1-(6-{[4-(difluoromethyl)pyridin-2-yl]amino}-4-methyl-2,3′-bipyridin-6′-yl)-1-hydroxyethyl]cyclohexane carboxylate]	4.3	141 (≈ 82.7 µg/mL)	–
Cc1cc(Nc2cc(C(F)F)ccn2)nc(-c2ccc([C@](C)(O)[C@H]3CC[C@H](C(=O)O[C@H]4CC[C@H](N(C)C)CC4)CC3)nc2)c1 [Example 9-1, Trans-4-(Dimethylamino)cyclohexyl trans-4-[(1R)-1-(6-{[4-(difluoromethyl)pyridin-2-yl]amino}-4-methyl-2,3′-bipyridin-6′-yl)-1-hydroxyethyl]cyclohexanecarboxylate]	3.2	162 (≈ 98.5 µg/mL)	–
Cc1cc(Nc2cc(C(F)F)ccn2)nc(-c2ccc([C@](C)(O)[C@H]3CC[C@H](C(=O)O)CC3)nc2)c1 [PrepEx 1-5, trans-4-[(1R)-(6-{[4-(Difluoromethyl)pyridin-2-yl]amino}-4-methyl-2,3′-bipyridin-6′-yl)-1-hydroxyethyl]cyclohexanecarboxylic acid]	–	< 3	< 0.5

Reference: patent US20150299125A1, “PRODRUG BIPYRIDYLAMINOPYRIDINES AS SYK INHIBITORS” (MERCK SHARP & DOHME CORP., priority 2012, published 2015)
